Experimental findings from patent US20110105397A1, “METHOD FOR TREATING HEART FAILURE WITH STRESSCOPIN-LIKE PEPTIDES” (priority 2009, published 2011) are described below.

Like-named read-outs stand apart in the source and are kept apart here. Where no end group is shown, it is not given here.

The target of one experiment is T1, human CRHR2 (Homo sapiens, UniProt Q13324).
T1 construct: expressed in transfected cells
T1 sequence (Q13324 1-411): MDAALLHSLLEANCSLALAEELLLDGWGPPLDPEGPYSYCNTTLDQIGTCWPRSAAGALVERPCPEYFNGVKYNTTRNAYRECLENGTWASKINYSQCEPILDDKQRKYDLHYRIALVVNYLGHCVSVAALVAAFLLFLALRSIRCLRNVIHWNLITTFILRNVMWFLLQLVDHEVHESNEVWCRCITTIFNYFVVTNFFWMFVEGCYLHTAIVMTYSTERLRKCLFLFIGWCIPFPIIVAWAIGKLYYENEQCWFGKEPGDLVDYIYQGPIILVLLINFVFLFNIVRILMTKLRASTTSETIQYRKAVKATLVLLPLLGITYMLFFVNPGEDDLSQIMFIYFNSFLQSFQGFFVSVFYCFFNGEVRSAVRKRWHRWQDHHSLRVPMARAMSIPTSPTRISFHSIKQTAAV
Put plainly: CRHR2 radioligand binding, [125I]-anti-sauvagine-30, SK-N-MC membranes. Conditions: CRHR2. The procedure: The binding profile of h-SCP (SEQ ID NO:1) at CRHR2 was determined in radioligand binding studies in a membrane preparation of SK-N-MC cells stably transfected with human CRHR2 using [^125I]-anti-sauvagine-30 as the radiolabel. […] The solution was then homogenized with a Polytron tissue grinder at a setting of 10 and 7×3 s (Brinkmann Instruments, Westbury, N.Y.). […] The supernatant was re-centrifuged at 26,892×g for 25 min at 4° Celsius with the final pellet being re-suspended in assay buffer. […] For competition studies, cell membranes of […] volume were incubated with either 60 pM [^125I]-anti-sauvagine-30 in 50 μl volume for the CRHR2 assay or with)[^125I]-([…]-sauvagine for the CRHR1 assay in the presence of 15 μl of competing ligand for 120 min having a total volume of 150 μl. […] The bound radioactivity was separated by filtration using a Multiscreen Resist manifold (Millipore Corp., Billerica, Mass., U.S.A). The filters were washed three times with ice-cold PBS at pH 7.5 and radioactivity retained on the filters was quantified by its liquid scintillation measured by a TopCount counter (Packard BioScience, Boston, Mass., U.S.A). All experiments were performed in triplicate. Data from individual competition curves were expressed as the percentage of specific [^125I]-anti-sauvagine-30 or)[^125I]-([…]-sauvagine binding (B) within each experiment. […] The competition curve obtained with h-SCP (SEQ ID NO:1) was biphasic.

Experiment [1] deals with anaesthetized male Sprague-Dawley rats. The experiment in a line: Hemodynamics in anaesthetized rats (IV bolus). To be noted: healthy anaesthetized rats. The format is in vivo, rat. The protocol: The hemodynamic profile of h-SCP (SEQ ID NO:1) was determined in sodium pentobarbital anaesthetized male Sprague-Dawley rats (FIG. 10). A SPR-320 Mikro-Tip® integrated catheter-tipped micro-manometer (Millar Instruments, Houston, Tex., U.S.A.) was placed in the right femoral artery for blood pressure measurements, and another one directly in the left ventricle for LV pressure measurement. […] The changes in hemodynamic parameters induced by h-SCP (SEQ ID NO:1, full circle in FIG. 10) were blocked by pretreatment with anti-sauvagine-30 (SEQ ID NO:118, open circle in FIG. 10).

Experiment [2] concerns dogs with advanced heart failure. Put plainly: Hemodynamic, angiographic, echocardiographic profile in anaesthetized dogs with advanced heart failure, IV infusion. It is filed as in vivo, dog. The procedure: The effects of h-SCP (SEQ ID NO:1) on cardiovascular function were also assessed in anaesthetized dogs with advanced, irreversible heart failure of ischemic etiology (Sabbah et al., 1991, Am. J. Physiol., vol. 260, pp. H1379-H1384; Sabbah et al., 1994, Circulation, vol. 98, pp. 2852-2859; Chandler et al., 2002, Circ. Res., vol. 91, pp. 278-280). Progressive, advanced heart failure was produced in mongrel dogs by multiple sequential intracoronary microembolization with polystyrene latex microspheres. Dose infusions of 2.2, 4.3, and 7.3 ng/kg/min were administered intravenously over 60 minutes just following or just prior to hemodynamic, angiographic, echocardiographic, and Doppler measurements using conventional hemodynamic, angiographic, echocardiographic, and radiographic methods. The h-SCP polypeptide (SEQ ID NO:1) produced dose- (infusion-) dependent increases in LVEF and SV and decreases in left ventricular end diastolic pressure (LVEDP), left ventricular pressure during isovolumic relaxation (LV-dP/dt), systemic vascular resistance (SVR), and left ventricular end-systolic volume (LVESV) that correlated with plasma concentration. No significant change in heart rate, peak systolic aortic blood pressure, LV+dP/dt, mean pulmonary artery pressure, mean pulmonary artery wedge pressure, right atrial pressure, or myocardial oxygen consumption were recorded following any of the 1 hour intravenous infusions (Table 18 and FIGS. 12 A & B). The improvement in LV systolic and diastolic function was not associated with the development of de novo ventricular arrhythmias.
In order to determine the threshold effective dose-infusion in dogs with advanced heart failure, a further study was performed at lower dose infusions. In addition, the opportunity was taken to explore whether the increase in LVEF produced by higher dose-infusions of 4.3 ng/kg/min would remain stable over a longer infusion period, i.e. 120 minutes.
In order to understand the potential cardiovascular effects of neutralizing antibody formation to h-SCP (SEQ ID NO:1), SV30 (SEQ ID No. 118), a competitive antagonist of CRHR2, was administered to dogs (N=4) with advanced heart failure. […] These experiments with SV30 indicate that baseline cardiovascular parameters in dogs with advanced heart failure were not dependent upon endogenous hormone stimulation of CRHR2. Similar findings have been reported in healthy conscious and anaesthetized rats (Gardiner et al., J. Pharmacol. Exp. Ther., 2007, vol 321, pp. 221-226).

The next experiment addresses T2, CRHR1 (Homo sapiens, UniProt P34998).
T2 sequence (P34998 24-415): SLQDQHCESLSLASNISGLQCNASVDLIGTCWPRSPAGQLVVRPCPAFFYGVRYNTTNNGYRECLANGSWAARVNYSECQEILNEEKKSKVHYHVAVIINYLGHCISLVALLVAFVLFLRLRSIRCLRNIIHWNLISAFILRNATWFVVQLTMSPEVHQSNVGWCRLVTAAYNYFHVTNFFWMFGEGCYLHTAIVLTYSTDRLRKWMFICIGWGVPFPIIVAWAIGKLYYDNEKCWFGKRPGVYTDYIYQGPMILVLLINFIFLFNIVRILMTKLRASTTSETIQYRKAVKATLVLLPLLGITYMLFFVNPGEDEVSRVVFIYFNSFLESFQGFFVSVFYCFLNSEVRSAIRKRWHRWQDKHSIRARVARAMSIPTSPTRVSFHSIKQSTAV
Put plainly: CRHR1 radioligand binding, [125I]-(Tyr0)-sauvagine. Also noted: host or cells: cell membranes. The text has this: The solution was then homogenized with a Polytron tissue grinder at a setting of 10 and 7×3 s (Brinkmann Instruments, Westbury, N.Y.). […] The bound radioactivity was separated by filtration using a Multiscreen Resist manifold (Millipore Corp., Billerica, Mass., U.S.A). The filters were washed three times with ice-cold PBS at pH 7.5 and radioactivity retained on the filters was quantified by its liquid scintillation measured by a TopCount counter (Packard BioScience, Boston, Mass., U.S.A). All experiments were performed in triplicate.

In experiment [3] the target is T3, human corticotrophin releasing hormone receptor type 2 (CRHR2) (human) (UniProt Q13324).
T3 sequence (looked up): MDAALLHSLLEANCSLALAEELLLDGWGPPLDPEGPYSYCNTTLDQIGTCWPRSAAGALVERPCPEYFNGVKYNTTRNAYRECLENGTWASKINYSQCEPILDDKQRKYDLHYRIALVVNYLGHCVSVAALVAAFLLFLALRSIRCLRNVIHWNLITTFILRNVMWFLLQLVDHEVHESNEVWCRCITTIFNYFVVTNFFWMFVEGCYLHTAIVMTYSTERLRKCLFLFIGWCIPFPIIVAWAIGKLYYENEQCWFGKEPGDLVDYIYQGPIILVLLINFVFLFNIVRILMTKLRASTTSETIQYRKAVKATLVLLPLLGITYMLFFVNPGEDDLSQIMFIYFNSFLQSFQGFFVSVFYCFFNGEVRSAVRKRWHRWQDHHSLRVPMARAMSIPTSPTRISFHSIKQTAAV
Put plainly: cell-based or functional assay.

Experiment [4] has as its target T4, human corticotrophin releasing hormone receptor type 1 (CRHR1) (human, UniProt P34998 24-415).
T4 sequence (looked up): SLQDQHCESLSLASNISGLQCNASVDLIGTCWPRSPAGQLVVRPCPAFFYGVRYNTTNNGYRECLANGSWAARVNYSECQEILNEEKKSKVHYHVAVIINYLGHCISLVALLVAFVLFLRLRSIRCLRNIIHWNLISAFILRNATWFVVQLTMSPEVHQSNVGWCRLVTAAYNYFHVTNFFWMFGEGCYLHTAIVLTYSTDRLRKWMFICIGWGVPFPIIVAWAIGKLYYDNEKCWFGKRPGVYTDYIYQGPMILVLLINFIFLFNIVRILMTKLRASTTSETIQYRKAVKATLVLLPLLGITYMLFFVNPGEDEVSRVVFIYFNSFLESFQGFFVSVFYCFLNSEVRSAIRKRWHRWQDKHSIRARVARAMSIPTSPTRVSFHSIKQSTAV
Put plainly: cell-based or functional assay.

In experiment [5] the target is T3, human corticotrophin releasing hormone receptor type 2 (CRHR2) (human). Put plainly: radioligand competition against [125I]-anti-sauvagine-30, membranes of SK-N-MC cells with human CRHR2. (In a radioligand displacement assay an active substance lowers the binding of a labelled ligand.)
For experiment [6] the target is unchanged. Put plainly: cell-based or functional assay. The source holds these as a separate data set.
Experiment [7] concerns the target T5, human corticotrophin releasing hormone receptor type 1 (CRHR1) (human), P34998.
T5 chain: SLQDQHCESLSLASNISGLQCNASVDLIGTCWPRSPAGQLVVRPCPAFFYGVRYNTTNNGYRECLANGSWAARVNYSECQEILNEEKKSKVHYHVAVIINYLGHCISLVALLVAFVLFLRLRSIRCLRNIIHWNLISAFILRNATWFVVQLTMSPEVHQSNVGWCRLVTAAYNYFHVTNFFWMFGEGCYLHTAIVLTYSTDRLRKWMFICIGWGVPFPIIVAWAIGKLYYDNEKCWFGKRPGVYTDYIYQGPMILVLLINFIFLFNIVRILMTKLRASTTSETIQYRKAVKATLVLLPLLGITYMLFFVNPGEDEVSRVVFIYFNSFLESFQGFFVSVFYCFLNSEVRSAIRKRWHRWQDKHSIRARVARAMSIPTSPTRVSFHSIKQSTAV
The experiment in a line: radioligand competition against [125I]-(Tyr0)-sauvagine, CRHR1 assay, cell membranes. Conditions: remark: other sources report otherwise.

For the molecule `CC[C@H](C)[C@H](NC(=O)[C@@H](NC(=O)[C@H](CC(=O)O)NC(=O)[C@H](CC(C)C)NC(=O)[C@H](CC(C)C)NC(=O)[C@H](CC(C)C)NC(=O)[C@H](CCCNC(=N)N)NC(=O)[C@H](CC(N)=O)NC(=O)[C@H](CC(N)=O)NC(=O)[C@H](C)NC(=O)[C@H](C)NC(=O)[C@H](CCC(N)=O)NC(=O)[C@H](CCC(N)=O)NC(=O)[C@H](CCCCN)NC(=O)[C@H](CCC(=O)O)NC(=O)[C@H](CCCCN)NC(=O)[C@H](CCC(=O)O)NC(=O)[C@H](CCC(N)=O)NC(=O)[C@H](CCCCN)NC(=O)[C@H](CCC(=O)O)NC(=O)[C@@H](NC(=O)[C@H](CCC(=O)O)NC(=O)[C@@H](NC(=O)[C@H](CCSC)NC(=O)[C@H](CCCCN)NC(=O)[C@H](CCCNC(=N)N)NC(=O)[C@H](CC(C)C)NC(=O)[C@H](CC(C)C)NC(=O)[C@H](Cc1c[nH]cn1)NC(=O)C(N)Cc1ccccc1)[C@@H](C)CC)[C@@H](C)CC)[C@@H](C)O)C(N)=O` (stereo partly drawn) [SEQ ID NO: 118, FHLLRKMIEIEKQEKEKQQAANNRLLLDTI-NH2, reference compound], the nH at human CRHR2 is on record as 1.15 ± 0.12. In addition, the “effect on baseline hemodynamic parameters” value in experiment [1] is “did not inhibit baseline parameters”. Further, in experiment [2] (CRHR2 blocking doses in dogs with advanced heart failure (N=4)), the “effect on cardiovascular parameters” value is on record as “without effect on cardiovascular parameters”. In experiment [2] (Table 20, AS-30 alone), the CO stood at 1.44 ± 0.04 L/min, the HR turned out to be 79 ± 3 beats/min, the “LV+dP/dt” value was determined as 1675 ± 109 mmHg/sec and the LVEDP amounted to 15 ± 1 mmHg. In experiment [2] (Table 20, AS-30 alone), the LVEDV is recorded as 68 ± 2.7 mL, the LVEF was 27 ± 0%, the LVESV was 50 ± 1.9 mL and the MPAP is reported as 16 ± 0.7 mmHg. In [2] (Table 20, AS-30 alone), this molecule had a PSAP of 94 ± 5 mmHg and an SV of 18 ± 0.8 mL. On CRHR1, this molecule displayed a nH of 1.00 ± 0.49.

Turning to DDPPLSIDLTFHLLRTLLELARTQSQRERAEQNRIIFDSV-NH2 [r-UCN1], the pA50 was 9.08 -log10(M) in experiment [3] and 9.19 -log10(M) in experiment [4]. Besides, in experiment [5], the pKI was 8.51 -log10(M).

For the molecule FTLSLDVPTNIMNLLFNIAKAKNLRAQAAANAHLMAQI-NH2 [human urocortin III], the pA50 in experiment [6] is 9.26 -log10(M); in experiment [4], < 5 -log10(M). Further, the pKI in [7] was 4.96 -log10(M); in experiment [5], 6.49 -log10(M).
